Read-outs that look alike come from different tables or passages of the source.
What was measured:
[1] = target: dopamine transporter (DAT) (Rattus norvegicus, UniProt P23977); test: Dopamine reuptake ([^3H]dopamine uptake) inhibition in rat brain synaptosomes; settings: for Emax: read-out: DA Uptake Emax (% I ± SD)
Description: Freshly removed caudate was homogenized in 10% ice-cold sucrose with 12 strokes of a hand-held Potter-Elvehj em homogenizer followed by centrifugation at 1000×g for 10 min. The supernatants were saved on ice and used immediately. Transporter activity was assessed using 5 nM [^3H]dopamine. […] The selectivity of the uptake assay for dopamine active transporter (DAT) was optimized by including 100 nM citalopram and 100 nM desipramine as blockers of serotonin transporter (SERT) and norepinephrine transporter (NET) in the sucrose solution and assay buffer. Uptake inhibition assays were conducted at 25° C. and were initiated by adding 100 μl of tissue to 900 μL assay buffer containing test drug and [^3H]dopamine. Test drugs were diluted in assay buffer containing 1 mg/mL bovine serum albumin. Nonspecific uptake was measured by incubating in the presence of 10 μM indatraline. The reactions were stopped after 15 minutes by rapid vacuum filtration with a cell harvester (BRANDEL) over GF/B filters (Whatman) presoaked in wash buffer maintained at 25° C. (10 mM Tris-HCl, pH 7.4/150 mM NaCl). Filters were rinsed with 6 mL wash buffer and retained tritium was quantified by a MicroBeta liquid scintillation counter (PerkinElmer) after overnight extraction in 0.6 mL of liquid scintillation cocktail (Cytoscint, ICN). The data from three experiments were pooled and fit to a dose-response curve equation (using Kaleidagraph), to yield an Emax and EC50 value.
The data from three experiments were pooled and fit to a dose-response curve equation (using KaleidaGraph; Synergy Software, Reading, Pa.) to yield an Emax and IC50 value.

[2] = DA Uptake EC50 (nM ± SD), rat caudate synaptosomes, 5 nM [^3H]dopamine, 15 min, 25° C., three experiments pooled

Chain of dopamine transporter (DAT) (P23977 whole entry): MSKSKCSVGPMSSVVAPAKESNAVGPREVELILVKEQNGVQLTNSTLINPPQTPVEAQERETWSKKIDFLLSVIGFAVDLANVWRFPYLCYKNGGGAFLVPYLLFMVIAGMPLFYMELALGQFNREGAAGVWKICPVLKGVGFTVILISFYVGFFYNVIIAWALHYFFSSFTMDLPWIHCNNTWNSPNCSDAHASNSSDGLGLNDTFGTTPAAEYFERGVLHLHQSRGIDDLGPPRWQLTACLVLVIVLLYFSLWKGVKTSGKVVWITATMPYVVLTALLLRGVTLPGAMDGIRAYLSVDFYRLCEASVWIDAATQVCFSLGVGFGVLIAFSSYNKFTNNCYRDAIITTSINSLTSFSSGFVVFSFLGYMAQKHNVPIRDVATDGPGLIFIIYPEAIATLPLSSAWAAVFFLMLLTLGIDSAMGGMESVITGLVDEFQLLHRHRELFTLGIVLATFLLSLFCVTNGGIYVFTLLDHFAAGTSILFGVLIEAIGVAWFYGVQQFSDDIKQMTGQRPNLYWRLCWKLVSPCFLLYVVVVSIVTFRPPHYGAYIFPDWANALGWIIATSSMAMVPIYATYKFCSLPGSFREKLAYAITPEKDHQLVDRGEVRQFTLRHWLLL

Compound | melting point | IC50 [1, 2] | Emax [1] | IC50 [1]
Cn1ccc2cc(-c3nc(NCC(c4ccccc4)c4ccccc4)c4ccccc4n3)ccc21 [compound 77, N-(2,2-Diphenylethyl)-2-(1-Methyl-1H-Indol-5-yl)Quinazolin-4-Amine] | 222 °C | 28 ± 5 nM | 69 ± 2% | 
O=C1Cc2cc(-c3nc(NCC(c4ccccc4)c4ccccc4)c4ccccc4n3)ccc2N1 [compound 78, 5-(4-((2,2-Diphenylethyl)Amino)Quinazolin-2-yl)Indolin-2-One] | 244 °C | 30 ± 5 nM | 77 ± 2% | 
Oc1nc2cc(-c3nc(NCC(c4ccccc4)c4ccccc4)c4ccccc4n3)ccc2[nH]1 [compound 79, 5-(4-((2,2-Diphenylethyl)Amino)Quinazolin-2-yl)-1H-Benzo[D]Imidazol-2-ol] | 215 °C | 51 ± 14 nM | 94 ± 4% | 
c1ccc(C(CNc2nc(-c3ccc4[nH]cnc4c3)nc3ccccc23)c2ccccc2)cc1 [compound 85, 2-(1H-Benzo [D]Imidazol-5-yl)-N-(2,2-Diphenylethyl)Quinazolin-4-Amine] | 142 °C | > 5000 nM |  | 
c1ccc(C(Nc2nc(-c3ccc4nccn4c3)nc3ccccc23)c2ccccc2)cc1 [compound 86, N-Benzhydryl-2-(Imidazo[1,2-A]Pyridin-6-yl)Quinazolin-4-Amine] | 258 °C | 55 ± 6 nM | 70 ± 1% | 
c1ccc(C(CCNc2nc(-c3ccc4nccn4c3)nc3ccccc23)c2ccccc2)cc1 [compound 87, N-(3,3-Diphenylpropyl)-2-(Imidazo[1,2-A]Pyridin-6-yl)Quinazolin-4-Amine] | 237 °C | 78 ± 9 nM | 75 ± 1% | 
Nc1ccc(-c2nc(NCC(c3ccccc3)c3ccccc3)c3ccccc3n2)cn1 [compound 88, 2-(6-Aminopyridin-3-yl)-N-(2,2-Diphenylethyl)Quinazolin-4-Amine] | 86 °C | 41 ± 13 nM | 86 ± 5% | 
c1ccc(C(CNc2nc(-n3cnc4cncnc43)nc3ccccc23)c2ccccc2)cc1 [compound 90, N-(2,2-Diphenylethyl)-2-(9H-Purin-9-yl)Quinazolin-4-Amine] | 264 °C | 94 ± 10 nM | 75 ± 2% | 
Cc1nc2ccc(-c3nc(NCC(c4ccccc4)c4ccccc4)c4ccccc4n3)cn2c1C [compound 91, 2-(2,3-Dimethylimidazo[1,2-A]Pyridin-6-yl)-N-(2,2-Diphenylethyl)Quinazolin-4-Amine] | 232 °C | 25 ± 3 nM | 72 ± 2% | 
CN(C)c1ccc(-c2nc(NC(c3ccccc3)c3ccccc3)c3ccccc3n2)cn1 [compound 92, N-Benzhydryl-2-(6-(Dimethylamino)Pyridin-3-yl)Quinazolin-4-Amine] | 207 °C | 34 ± 5 nM | 68 ± 2% | 
CN(C)c1ccc(-c2nc(NCCC(c3ccccc3)c3ccccc3)c3ccccc3n2)cn1 [compound 93, 2-(6-(Dimethylamino)Pyridin-3-yl)-N-(3,3-Diphenylpropyl)Quinazolin-4-Amine] | 195 °C | 29 ± 4 nM | 76 ± 2% | 
c1ccc(C(CNc2nc(-c3ccc4nccn4c3)nc3ccccc23)c2ccccn2)cc1 (centres unmarked) [compound 94, 2-(Imidazo[1,2-A]Pyridin-6-yl)-N-(2-Phenyl-2-(Pyridin-2-yl)Ethyl)Quinazolin-4-Amine] | 238 °C | 36 ± 4 nM | 69 ± 1% | 
Nc1ncc(-c2nc(NCC(O)(c3ccccc3)c3ccccc3)c3ccccc3n2)cn1 [compound 97, 2-((2-(2-Aminopyrimidin-5-yl)Quinazolin-4-yl)Amino)-1,1-Diphenylethanol] | 222 °C | 665 ± 150 nM | 90 ± 5% | 
Nc1ncc(-c2nc(NCC(c3ccccc3)C3CCCCC3)c3ccccc3n2)cn1 (centres unmarked) [compound 101, 2-(2-Aminopyrimidin-5-yl)-N-(2-Cyclohexyl-2-Phenylethyl)Quinazolin-4-Amine] | 105 °C | 79 ± 19 nM | 75 ± 3% | 
Nc1ncc(-c2nc(NCC(c3ccccc3)c3ccncc3)c3ccccc3n2)cn1 (centres unmarked) [compound 107, 2-(2-Aminopyrimidin-5-yl)-N-(2-Phenyl-2-(Pyridin-4-yl)Ethyl)Quinazolin-4-Amine] | 219 °C | 197 ± 40 nM | 81 ± 3% | 
c1ccc(C(CNc2nc(-c3cnc4nccn4c3)nc3ccccc23)c2ncccn2)cc1 (centres unmarked) [compound 109, 2-(Imidazo[1,2-A]Pyrimidin-6-yl)-N-(2-Phenyl-2-(Pyrimidin-2-yl)Ethyl)Quinazolin-4-Amine] | 180 °C | 377 ± 78 nM | 57 ± 2% | 
Cl.c1ccc(C(CNc2nc(-c3ccc4nccn4c3)nc3cc(OCCCN4CCOCC4)ccc23)c2ccccc2)cc1 [compound 125, N-(2,2-Diphenylethyl)-2-(Imidazo[1,2-A]Pyridin-6-yl)-7-(3-Morpholinopropoxy)Quinazolin-4-Amine Hydrochloride] | 232 °C |  | 52 ± 3% | 75 ± 25 nM

Further lines, with some results ahead:

melting point | IC50 [1, 2] | Emax [1] | Compound | IC50 [1]
182 °C | 381 ± 42 nM | 101 ± 2% | CN(C)Cc1c[nH]c2ccc(-c3nc(NCC(c4ccccc4)c4ccccc4)c4ccccc4n3)cc12 [compound 111, 2-(3-((Dimethylamino)methyl)-1H-Indol-5-yl)-N-(2,2-Diphenylethyl)Quinazolin-4-Amine] | 
204 °C | 74 ± 9 nM | 64 ± 1% | CCOC(=O)c1cn2cc(-c3nc(NCC(c4ccccc4)c4ccccc4)c4ccccc4n3)ccc2n1 [compound 113, Ethyl 6-(4-((2,2-Diphenylethyl)Amino)Quinazolin-2-yl)Imidazo[1,2-A]Pyridine-2-Carboxylate] | 
224 °C | 67 ± 7 nM | 68 ± 1% | c1ccc(C(CNc2nc(-c3ccc4nncn4c3)nc3ccccc23)c2ccccc2)cc1 [compound 114, 2-([1,2,4]Triazolo[4,3-A]Pyridin-6-yl)-N-(2,2-Diphenylethyl)Quinazolin-4-amine] | 
193 to 195 °C | 117 ± 35 nM | 83 ± 5% | c1ccc(C(CNc2nc(-c3ccc4nccn4c3)nc3ccccc23)N2CCCCC2)cc1 (centres unmarked) [compound 119, 2-(Imidazo[1,2-A]Pyridin-6-yl)-N-(2-Phenyl-2-(Piperidin-1-yl)Ethyl)Quinazolin-4-Amine] | 
205 to 207 °C | 170 ± 50 nM | 83 ± 5% | c1ccc(C(CNc2nc(-c3ccc4nccn4c3)nc3ccccc23)N2CCCC2)cc1 (centres unmarked) [compound 121, 2-(Imidazo[1,2-A]Pyridin-6-yl)-N-(2-Phenyl-2-(Pyrrolidin-1-yl)Ethyl)Quinazolin-4-Amine] | 
193 °C | 31 ± 5 nM | 69 ± 2% | c1ccc(C(CNc2nc(-c3cnc4[nH]ccc4c3)nc3ccccc23)c2ccccc2)cc1 [compound 123, N-(2,2-Diphenylethyl)-2-(1H-Pyrrolo[2,3-B]Pyridin-5-yl)Quinazolin-4-Amine] | 
109 to 111 °C | 40 ± 5 nM | 74 ± 2% | c1ccc(C(CNc2nc(-c3ccc4[nH]ccc4c3)nc3ccccc23)c2cccnc2)cc1 (centres unmarked) [compound 130, 2-(1H-Indol-5-yl)-N-(2-Phenyl-2-(Pyridin-3-yl)Ethyl)Quinazolin-4-Amine] | 
> 250 °C | 103 ± 26 nM | 55 ± 3% | c1ccc(C(CNc2nc(-c3ccc4ncnn4c3)nc3ccccc23)c2cccnc2)cc1 (centres unmarked) [compound 132, 2-([1,2,4]Triazolo[1,5-a]pyridin-6-yl)-N-(2-phenyl-2-(pyridin-3-yl)ethyl)quinazolin-4-amine] | 
242 to 244 °C | 194 ± 30 nM | 70 ± 2% | c1ccc(C(CNc2nc(-c3ccc4cnccc4c3)nc3ccccc23)c2ccccc2)cc1 [compound 133, N-(2,2-Diphenylethyl)-2-(Isoquinolin-6-yl)Quinazolin-4-Amine] | 
107 to 109 °C | 1490 ± 342 nM | 70 ± 4% | c1ccc(C2CN(c3nc(-c4ccc5nccn5c4)nc4ccccc34)Cc3ccccc32)cc1 (centres unmarked) [compound 135, 2-(Imidazo[1,2-A]Pyridin-6-yl)-4-(4-Phenyl-3,4-Dihydroisoquinolin-2(1H)-yl)Quinazoline] | 
208 to 210 °C | 34 ± 4 nM | 78 ± 2% | c1ccc(CC(CNc2nc(-c3ccc4nccn4c3)nc3ccccc23)c2ccccc2)cc1 (centres unmarked) [compound 136, N-(2,3-Diphenylpropyl)-2-(imidazo[1,2-a]pyridin-6-yl)quinazolin-4-amine] | 
91 to 93 °C | 44 ± 8 nM | 76 ± 2% | Cn1ccc2cc(-c3nc(NCC(c4ccccc4)c4cccnc4)c4ccccc4n3)ccc21 (centres unmarked) [compound 137, 2-(1-Methyl-1H-Indol-5-yl)-N-(2-Phenyl-2-(Pyridin-3-yl)Ethyl)Quinazolin-4-Amine] | 
210 °C | 26 ± 3 nM | 63 ± 1% | CS(=O)(=O)Nc1ccc(-c2nc(NCC(c3ccccc3)c3ccccc3)c3ccccc3n2)cn1 [compound 138, N-(5-(4-((2,2-Diphenylethyl)Amino)Quinazolin-2-yl)Pyridin-2-yl)Methanesulfonamide] | 
214 °C | 205 ± 32 nM | 67 ± 2% | CS(=O)(=O)Nc1ncc(-c2nc(NCC(c3ccccc3)c3ccccc3)c3ccccc3n2)cn1 [compound 139, N-(5-(4-((2,2-Diphenylethyl)Amino)Quinazolin-2-yl)Pyrimidin-2-yl)Methanesulfonamide] | 
102 to 104 °C | 45 ± 7 nM | 98 ± 3% | c1ccc(C(CNc2nc(-c3cccc4cccnc34)nc3ccccc23)c2ccccc2)cc1 [compound 141, N-(2,2-Diphenylethyl)-2-(Quinolin-8-yl)Quinazolin-4-Amine] | 
189 to 191 °C | 15 ± 3 nM | 73 ± 2% | c1ccc(CC(CNc2nc(-c3cnc4nccn4c3)nc3ccccc23)c2ccccc2)cc1 (centres unmarked) [compound 142, N-(2,3-Diphenylpropyl)-2-(Imidazo[1,2-A]Pyrimidin-6-yl)Quinazolin-4-Amine] | 

From patent US9873702B2, “Heterocyclic compounds as biogenic amine transport modulators” (Southern Research Institute, priority 2014, dated 2018)
